Measured values published in ChEMBL document CHEMBL1201862, “PubChem BioAssay data set” (2004).
Calls of active or inactive are those of the source.

What was measured:
[1] = target: T1, Ubiquitin-conjugating enzyme E2 N (Homo sapiens, UniProt P61088); type: functional;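 note: Dose-response confirmation in a TR-FRET assay detecting UBC13-driven polyubiquitin chain formation, inhibition measured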
T1 sequence (P61088 whole entry): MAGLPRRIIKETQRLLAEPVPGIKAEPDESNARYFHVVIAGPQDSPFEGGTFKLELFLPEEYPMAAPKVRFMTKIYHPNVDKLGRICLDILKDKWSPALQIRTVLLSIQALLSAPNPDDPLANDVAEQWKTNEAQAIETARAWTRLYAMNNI

H9c2 = experiment: cells; type: functional, cell-based; conditions: Rattus norvegicus, H9c2, Myocardium;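 note: confirmatory concentration-response retest of ultra-high-throughput screening hits for modulation of myocardial damage; cell death induced by hydrogen peroxide oxidative stress; compound pretreatment for 60 min then peroxide exposure for 2 h; potency is for protecting the cells against peroxide damage rather than for killing them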
[2] = target: Heat shock protein HSP 90-alpha (Homo sapiens, UniProt P07900); type: functional, organism-based
[3] = target: T2, Replicative DNA helicase DnaB (Mycobacterium tuberculosis, UniProt P9WMR3); experiment: DnaB intein splicing inhibitors, dose response, biochemical, cell-free fluorescence (AID 449749); type: functional
T2 sequence (P9WMR3 whole entry): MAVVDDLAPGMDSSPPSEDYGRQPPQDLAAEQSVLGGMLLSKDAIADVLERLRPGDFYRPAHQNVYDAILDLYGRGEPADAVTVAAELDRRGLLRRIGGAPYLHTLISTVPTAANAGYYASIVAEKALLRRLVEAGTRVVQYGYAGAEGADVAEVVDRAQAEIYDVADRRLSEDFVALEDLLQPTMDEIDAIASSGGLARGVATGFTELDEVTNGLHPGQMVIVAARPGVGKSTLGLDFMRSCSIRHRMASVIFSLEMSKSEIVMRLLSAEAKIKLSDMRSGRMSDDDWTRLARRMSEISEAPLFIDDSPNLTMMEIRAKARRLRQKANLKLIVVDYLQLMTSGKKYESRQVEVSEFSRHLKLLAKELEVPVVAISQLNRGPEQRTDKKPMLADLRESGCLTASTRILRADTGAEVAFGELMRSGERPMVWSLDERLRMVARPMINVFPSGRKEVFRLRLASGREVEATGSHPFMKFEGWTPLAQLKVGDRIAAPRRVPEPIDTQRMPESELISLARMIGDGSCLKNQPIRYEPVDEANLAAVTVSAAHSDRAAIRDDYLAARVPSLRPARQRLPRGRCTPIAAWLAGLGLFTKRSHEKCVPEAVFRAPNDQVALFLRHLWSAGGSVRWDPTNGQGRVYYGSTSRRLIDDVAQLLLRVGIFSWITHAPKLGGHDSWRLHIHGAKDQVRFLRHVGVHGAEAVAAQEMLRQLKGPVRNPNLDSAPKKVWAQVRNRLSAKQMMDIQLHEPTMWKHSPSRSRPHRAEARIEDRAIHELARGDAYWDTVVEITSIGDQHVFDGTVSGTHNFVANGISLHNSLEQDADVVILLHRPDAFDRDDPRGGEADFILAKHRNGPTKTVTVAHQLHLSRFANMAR

Protein RecA = target: T3, Protein RecA (Mycobacterium tuberculosis, UniProt P9WHJ3); experiment: Fluorescence Cell-Free Homogeneous Dose Retest to Identify Inhibitors of RecA-Intein Splicing Activity. [Related pubchem assays (depositor defined):AID2097, AID2223, AID489010, AID492950]; type: functional
T3 sequence (P9WHJ3 whole entry): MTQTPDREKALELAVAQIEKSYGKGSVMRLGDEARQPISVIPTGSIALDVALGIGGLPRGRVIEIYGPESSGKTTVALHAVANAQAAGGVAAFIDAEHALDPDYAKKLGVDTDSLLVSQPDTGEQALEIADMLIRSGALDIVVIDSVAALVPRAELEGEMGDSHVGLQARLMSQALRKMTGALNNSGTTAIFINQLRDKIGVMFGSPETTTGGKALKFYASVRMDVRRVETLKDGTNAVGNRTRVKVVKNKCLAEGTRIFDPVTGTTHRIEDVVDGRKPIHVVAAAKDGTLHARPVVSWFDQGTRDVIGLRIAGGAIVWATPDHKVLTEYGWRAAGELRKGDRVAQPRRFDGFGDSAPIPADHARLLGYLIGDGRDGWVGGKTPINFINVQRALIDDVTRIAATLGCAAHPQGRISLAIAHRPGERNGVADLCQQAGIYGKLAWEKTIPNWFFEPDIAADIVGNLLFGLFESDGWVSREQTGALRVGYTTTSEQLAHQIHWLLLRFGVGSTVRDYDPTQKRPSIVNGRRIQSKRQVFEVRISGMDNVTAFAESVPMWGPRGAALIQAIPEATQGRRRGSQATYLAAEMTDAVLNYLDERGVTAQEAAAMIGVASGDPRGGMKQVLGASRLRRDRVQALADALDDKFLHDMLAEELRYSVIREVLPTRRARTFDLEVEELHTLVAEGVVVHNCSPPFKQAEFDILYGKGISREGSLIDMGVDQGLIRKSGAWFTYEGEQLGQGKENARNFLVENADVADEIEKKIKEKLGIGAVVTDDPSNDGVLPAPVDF

H4 = experiment: Luminescence Cell-Based Dose Response HTS to Identify Activators of 5'UTR Stem-Loop Driven Prion Protein mRNA Translation in H4 Neuroglioblastoma Cells. [Related pubchem assays: 1829 (Project Summary), 1814 (Primary HTS)]; type: functional; conditions: Homo sapiens
[4] = Luminescence Cell-Based Dose Response HTS to Identify Activators of Luciferase Translation or Activity in H4 […] Cells. [Related pubchem assays: 1829 (Project Summary), 1814 (Primary HTS)]; type: functional
[5] = Luminescence Cell-Based Dose Confirmation HTS to Identify Activators of 5'UTR Stem-Loop Driven Alpha-Synuclein mRNA Translation in H4 Neuroglioblastoma Cells. [Related pubchem assays: 1829 (Project Summary), 1814 (Primary HTS)]; type: functional
Cytochrome P450 3A4 = Cytochrome P450 3A4 (Homo sapiens, UniProt P08684);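 note: CYP3A4 tested as one member of a cytochrome P450 panel screen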
[6] = target: T4, Corticotropin-releasing factor receptor 2/Corticotropin-releasing factor-binding protein (Homo sapiens, UniProt P24387+Q13324); experiment: Dose Response confirmation of uHTS hits for small molecule antagonists of the CRF-binding protein and CRF-R2 receptor complex.; type: functional; conditions: read-out: IC50_Mean
T4 sequence (Q13324 whole entry): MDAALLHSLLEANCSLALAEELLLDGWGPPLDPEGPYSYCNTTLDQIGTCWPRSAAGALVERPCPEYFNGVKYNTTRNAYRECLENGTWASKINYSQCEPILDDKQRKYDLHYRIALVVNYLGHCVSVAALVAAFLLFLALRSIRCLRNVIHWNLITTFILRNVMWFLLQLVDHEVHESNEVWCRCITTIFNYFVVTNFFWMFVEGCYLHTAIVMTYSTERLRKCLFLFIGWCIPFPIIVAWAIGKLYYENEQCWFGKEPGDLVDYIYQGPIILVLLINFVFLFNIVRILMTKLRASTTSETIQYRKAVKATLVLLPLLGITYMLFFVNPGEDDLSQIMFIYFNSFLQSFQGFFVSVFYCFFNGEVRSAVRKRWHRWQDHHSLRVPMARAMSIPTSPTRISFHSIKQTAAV
T4 sequence (P24387 whole entry): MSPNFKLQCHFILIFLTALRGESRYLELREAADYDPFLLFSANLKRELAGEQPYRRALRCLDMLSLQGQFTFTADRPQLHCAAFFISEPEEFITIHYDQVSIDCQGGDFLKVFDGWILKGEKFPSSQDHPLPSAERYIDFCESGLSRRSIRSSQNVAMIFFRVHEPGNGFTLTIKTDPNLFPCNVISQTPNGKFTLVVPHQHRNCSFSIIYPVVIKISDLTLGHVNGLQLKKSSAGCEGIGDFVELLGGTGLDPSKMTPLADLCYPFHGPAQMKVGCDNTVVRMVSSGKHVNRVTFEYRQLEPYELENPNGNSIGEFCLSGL

[7] = target: T4, Corticotropin-releasing factor receptor 2/Corticotropin-releasing factor-binding protein; experiment: activators of CRF receptor 2 with binding protein – uHTS hits, confirmation (AID 602473); type: functional; conditions: read-out: EC50_Mean
[8] = inhibitors of intracellular T. cruzi replication, confirmation, NIH3T3 host cells, beta-gal luminescence (AID 2044); type: functional, cell-based;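 note: intracellular parasites grown in NIH/3T3 mouse fibroblasts as host cells; luminescent beta-galactosidase reporter signal from transgenic T. cruzi replicating inside host cells; inhibitors lower the luminescence signal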
[9] = cytotoxicity toward NIH3T3 fibroblasts, dose response, counter-screen, cell-based, ATP luminescence, mouse fibroblasts (AID 2010); type: functional;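 note: cells exposed to compound for about 90 hours before reading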
[10] = control 3'UTR Renilla luciferase suppression, dose response, counter-screen for Shn3 inhibitor project, cell-based, Clone20-Shn3RL, cherry-picked (AID 624133); type: functional

Cytochrome P450 3A4, sequence (P08684 whole entry): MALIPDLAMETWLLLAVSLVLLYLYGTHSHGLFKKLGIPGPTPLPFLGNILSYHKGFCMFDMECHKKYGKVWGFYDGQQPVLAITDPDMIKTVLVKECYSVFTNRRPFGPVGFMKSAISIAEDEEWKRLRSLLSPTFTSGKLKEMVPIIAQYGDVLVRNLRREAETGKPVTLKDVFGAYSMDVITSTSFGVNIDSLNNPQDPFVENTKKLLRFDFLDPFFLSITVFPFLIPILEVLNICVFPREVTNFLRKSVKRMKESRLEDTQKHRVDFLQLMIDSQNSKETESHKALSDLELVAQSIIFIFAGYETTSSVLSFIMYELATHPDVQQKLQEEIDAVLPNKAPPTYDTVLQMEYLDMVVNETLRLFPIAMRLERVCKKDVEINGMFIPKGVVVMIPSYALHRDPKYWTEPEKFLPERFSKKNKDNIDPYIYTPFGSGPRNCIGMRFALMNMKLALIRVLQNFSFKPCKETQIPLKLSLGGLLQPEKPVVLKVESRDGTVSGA

For O=C1c2cccc3cccc(c23)C(=O)N1Nc1ccccc1, the IC50 [1] was > 20 µM (inactive).
For CCSc1nnc(NC(=O)C2Cc3ccccc3CN2S(=O)(=O)CC)s1 (stereo unspecified), the IC50 (H9c2) was 10 µM (active).
For Oc1cc(-c2ccc(C3CCCCC3)cc2)[nH]n1, the AC50 [2] was 8 µM (active), the AC50 [3] was 1.99 µM (active) and the EC50 (Protein RecA) was 1.01 µM (active).
With CC(=O)Nc1cc(C)nn1-c1nc2ccccc2s1 the IC50 (H9c2) was 11.6 µM (active).
For CCCOc1ccc(OCCSc2nnc(N)s2)cc1, the EC50 (H4) was 15.2 µM (active), the EC50 [4] was 15 µM (active) and the EC50 [5] was 23.1 µM (active).
In the case of COc1ccc2cc3cc(C(=O)NCCN4CCc5ccccc5C4)sc3nc2c1, the EC50 (H4) is reported as 15.1 µM (active), the EC50 [4] is reported as 17.8 µM (active) and the EC50 [5] is reported as 6.85 µM (active).
In the case of CC(C)(C)C(=O)NC(=S)NCCc1ccccc1, the AC50 (Cytochrome P450 3A4) is reported as 25.1 µM (inconclusive), the IC50 [6] is reported as > 47.1 µM (inactive) and the EC50 [7] is reported as > 53 µM (inactive).
For Nc1ccc(Cc2nc3c(ccc4ccccc43)[nH]2)cc1, the EC50 (H4) was 14.7 µM (active), the EC50 [4] was 24.8 µM (active) and the EC50 [5] was 14 µM (active).
With COc1cccc(C2(O)CC(C(F)(F)F)=NN2C(=O)c2ccccn2)c1 (stereo unspecified) the EC50 (H4) was 7.55 µM (active), the EC50 [4] was > 120 µM (not active) and the EC50 [5] was 18.5 µM (active).
For CC(=O)c1cc(-c2ccccc2)n(CC(=O)NC2CCCC2)c1C, the EC50 (H4) was > 120 µM (not active), the EC50 [4] was > 120 µM (not active) and the EC50 [5] was > 120 µM (not active).
For Cc1c(O)ccc2c3c(c(=O)oc12)CCC(C)C3 (stereo unspecified), the IC50 (H9c2) was > 79 µM (inactive).
For CCOC(=O)COc1cccc(C2NC(=O)c3ccccc3O2)c1 (stereo unspecified), the IC50 (H9c2) was 12.7 µM (active).
With O=C1C2C3C=CC(CO)(O3)C2C(=O)N1c1ccc(-c2ccccc2)cc1 (stereo unspecified) the EC50 (H4) was 15.5 µM (active), the EC50 [4] was 8.45 µM (active) and the EC50 [5] was > 120 µM (not active).
In the case of CCOC(=O)C1CCCN(C(=O)c2cccc(S(=O)(=O)N(Cc3ccccc3)c3ccccc3OC)c2)C1 (stereo unspecified), the EC50 [8] is reported as 3.84 µM (active), the EC50 [9] is reported as 35.2 µM (active) and the IC50 [6] is reported as > 47.1 µM (inactive). The EC50 [7] was > 53 µM (inactive).
For COc1cc2c(cc1NC(=O)CSc1ccccn1)oc1ccccc12, the EC50 (H4) was 30.4 µM (active), the EC50 [4] was 15 µM (active) and the EC50 [5] was 10.9 µM (active).
With CN(C)CC(O)COc1ccc(C(C)(C)c2ccc(OCC(O)CN(C)C)cc2)cc1 (stereo unspecified) the IC50 [1] was > 20 µM (inactive).
In the case of CC(Sc1nnc(Cc2cccs2)n1C1CC1)C(=O)NC1CCS(=O)(=O)C1 (stereo unspecified), the IC50 [6] is reported as > 47.1 µM (inactive) and the EC50 [7] is reported as > 53 µM (inactive).
With COc1ccc(OC(=O)c2ccc(Cl)cc2)c(C(C)=O)c1 the IC50 [6] was > 47.1 µM (inactive) and the EC50 [7] was > 53 µM (inactive).
In the case of COc1ccc(CC(=O)N(C)CC(=O)Nc2ccccc2Cl)cc1S(=O)(=O)N1CCOCC1, the IC50 [1] is reported as > 20 µM (inactive).
With CC(C)(C)c1nc(CN2CCCCC2)cc(CN2CCCCC2)c1O the IC50 [6] was > 47.1 µM (inactive) and the EC50 [7] was > 53 µM (inactive).
In the case of Cc1cc(C)cc(C(=O)NCC(=O)OCC(=O)NCC(F)(F)F)c1, the AC50 [10] is reported as 9.91 µM (active).
In the case of Sc1nc2ccccc2c2ccccc12, the IC50 (H9c2) is reported as 31.5 µM (inactive).
With Cc1nc(-c2ccccn2)nc(S)c1Cl the IC50 (H9c2) was > 79 µM (inactive).
With O=C(NN1C(=O)c2ccc3c4c(ccc(c24)C1=O)CC3)c1ccc(Br)cc1 the IC50 [1] was > 20 µM (inactive).
For O=C(CSc1ccc2nnc(-c3ccc(F)cc3)n2n1)N1CCCc2ccccc21, the IC50 (H9c2) was > 79 µM (inactive).
In the case of N#CC1=C(N)Oc2cc(N)ccc2C1C1CCCCC1 (stereo unspecified), the EC50 (H4) is reported as > 120 µM (not active), the EC50 [4] is reported as > 120 µM (not active) and the EC50 [5] is reported as > 120 µM (not active).
With COc1ccc(-c2cc3cc(OC)c(OC)cc3cn2)cc1OC the EC50 (H4) was 18 µM (active), the EC50 [4] was 21.7 µM (active) and the EC50 [5] was 10.2 µM (active).
With CCCCn1c(-c2cccs2)nc2nc3ccccc3nc21 the IC50 [1] was > 20 µM (inactive).
For Cc1ccc(C2CN=NC23CCc2ccccc2C3=O)cc1 (stereo unspecified), the EC50 (H4) was > 120 µM (not active), the EC50 [4] was 23.9 µM (active) and the EC50 [5] was 15.3 µM (active).
In the case of CC1(C)c2[nH]c3ccccc3c2C[C@H]2C(=O)N(Cc3ccccc3)C(=O)N21, the IC50 [6] is reported as > 47.1 µM (inactive) and the EC50 [7] is reported as > 53 µM (inactive).
With CCNC(C(=O)c1c[nH]c2c(CC)cccc12)c1ccccc1 (stereo unspecified) the IC50 [1] was > 20 µM (inactive).
For COc1ccc(OCC(O)CN2CCc3ccccc3C2)cc1 (stereo unspecified), the IC50 [6] was > 47.1 µM (inactive) and the EC50 [7] was > 53 µM (inactive).
With COc1ccccc1-n1ccnc(SCC(=O)NCc2ccccc2Cl)c1=O the AC50 [10] was 13 µM (active).
In the case of N#Cc1ccccc1OCC(=O)Nc1nc(-c2ccccn2)cs1, the IC50 (H9c2) is reported as > 79 µM (inactive).
